Laboratory results taken from publication PMC12621175, “Scaffold Fusion and SAR Transfer with a Chemical Language Model Generates Novel Liver X Receptor Modulators” (Journal of Medicinal Chemistry, 2025).
Entries after “also recorded” stand apart in the source; their conditions may differ.

Legend:
[1] = target: T1, LXRα (Homo sapiens, UniProt Q13133); test: Gal4-LXRα hybrid reporter gene assay; format: cell-based
T1 construct: coding for the hinge region, and LBD of the canonical isoform of the respective nuclear receptor; expressed in transfected cells; host or cells: HEK293T
T1 sequence (Q13133 209-447 limits assumed): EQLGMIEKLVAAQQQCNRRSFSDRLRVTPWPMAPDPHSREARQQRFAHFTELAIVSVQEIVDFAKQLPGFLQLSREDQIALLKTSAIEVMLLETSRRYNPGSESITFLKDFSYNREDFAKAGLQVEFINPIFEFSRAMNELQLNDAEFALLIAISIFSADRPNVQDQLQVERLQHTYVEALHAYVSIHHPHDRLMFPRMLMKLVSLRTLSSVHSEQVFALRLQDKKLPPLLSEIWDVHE
Method: (§1) The LXR-responsive reporter ABCA1-pGL3 was used for the full-length reporter gene assay.
(§2) The day before transfection, HEK293T cells were seeded in 96-well plates (4 × 10^4 cells/well). Before transfection, the medium was changed to Opti-MEM without any supplements. Transient transfection was carried out using Lipofectamine LTX reagent (Invitrogen) according to the manufacturer’s protocol with (a) pFR-Luc (Stratagene), pRL-SV40 (Promega), and the corresponding Gal4-fusion nuclear receptor plasmid or (b) the LXR-responsive reporter ABCA1-pGL3 and pRL-SV40 (Promega). […] Each concentration was tested in duplicate, and each experiment was repeated in at least three biologically independent repeats. […] Luminescence was measured with a Spark 10 M luminometer (Tecan Deutschland GmbH). Normalization of transfection efficiency and cell growth was done by division of firefly luciferase data by renilla luciferase data multiplied by 1000, resulting in relative light units (RLU). Fold activation was obtained by dividing the mean RLU of the tested compound at a respective concentration by the mean RLU of the untreated 0.1% DMSO control. […] Separate control experiments to exclude nonspecific reporter gene activation or VP16-mediated effects were performed following the same procedure in the absence of a nuclear receptor expression plasmid (pFR-Luc, pRL-SV40, and pECE-SV40-Gal4-VP16 only).

[2] = target: T2, LXRβ (Homo sapiens, UniProt P55055); test: Gal4-LXRβ hybrid reporter gene assay; format: cell-based; conditions: classification agonist; read-out: LXRb pEC50/pIC50 (converted)
T2 construct: coding for the hinge region, and LBD of the canonical isoform of the respective nuclear receptor; expressed in transfected cells; host or cells: HEK293T
T2 sequence (P55055 222-460 limits assumed): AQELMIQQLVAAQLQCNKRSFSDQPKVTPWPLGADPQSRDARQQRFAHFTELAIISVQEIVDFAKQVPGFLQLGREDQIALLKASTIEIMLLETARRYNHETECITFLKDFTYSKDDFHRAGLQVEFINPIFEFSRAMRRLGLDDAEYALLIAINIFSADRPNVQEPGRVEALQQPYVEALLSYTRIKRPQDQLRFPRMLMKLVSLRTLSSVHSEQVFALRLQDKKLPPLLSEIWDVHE
Method: as §1, §2

[3] = test system: LXR/retinoid X receptor (RXR) heterodimer; test: full-length LXR assay (LXR-responsive ABCA1 reporter, endogenous LXR) in HEK293T and HepG2 cells; format: cell-based; conditions: 3 μM, vs 0.1% DMSO
From the text: Intrigued by the initial data on LXR modulation, we further investigated the mode-of-action of designs 1-3. As the Gal4 hybrid reporter gene assay is artificial and overexpresses LXR, we next examined LXR modulation by 1-3 in a full-length LXR assay (Figure a) based on the endogenous expression of the LXR/retinoid X receptor (RXR) heterodimer (Figure S2). Upon activation, LXR binds to response elements within the ATP-binding cassette transporter A1 (ABCA1, an LXR target gene) promoter of the reporter. […] The designs were next checked for antiproliferative effects that may compromise further in vitro characterization. […] Therefore, and due to the weak efficacy of 2, we focused further biological characterization on 1 and 3.
For the hybrid reporter gene assays, the previously reported Gal4-fusion receptor plasmids pFA-CMV-hRORα-LBD, pFA-CMV-hRORβ-LBD, pFA-CMV-hRORγ-LBD, pFA-CMV-hLXRα-LBD, pFA-CMV-hLXRβ-LBD, pFA-CMV-hFXR-LBD, pFA-CMV-hPXR-LBD, and pFA-CMV-hRXRα-LBD, coding for the hinge region, and LBD of the canonical isoform of the respective nuclear receptor were used. pFR-Luc (Stratagene) was used as the reporter plasmid, and pRL-SV40 (Promega) was used in all assays for the normalization of transfection efficiency and cell growth. pECE-SV40-Gal4-VP16 was a gift from Lea Sistonen (Addgene plasmid #71728). The LXR-responsive reporter ABCA1-pGL3 was used for the full-length reporter gene assay.
The day before transfection, HEK293T cells were seeded in 96-well plates (4 × 10^4 cells/well). Before transfection, the medium was changed to Opti-MEM without any supplements. […] Luminescence was measured with a Spark 10 M luminometer (Tecan Deutschland GmbH). […] EC50/IC50 values and the standard errors thereof were calculated with the mean fold activation values by OriginPro, Version 2025 (OriginLab Corporation, Northampton, MA, USA), fitting a dose–response curve with a variable Hill slope (Levenberg–Marquardt algorithm). […]

[4] = test system: HEK293T cells; test: resazurin-based proliferation assay, HEK293T; format: cell-based; conditions: 10 μM
Method: (§3) HepG2 or HEK293T cells were seeded in 96-well plates (4 × 10^4 cells per well). […] After 4, 14, and 24 h, the medium was aspirated, and the cells were incubated with 100 μM resazurin solution in Opti-MEM (prepared from a 0.15 mg/mL resazurin stock in DPBS) for 60 min. The metabolic activity was assessed by conversion of resazurin to resorufin, which was quantified by measuring absorbance at 570 nm and a reference wavelength of 600 nm. The cell count was calculated from a calibration curve with 0–10^5 cells per well in steps of 2 × 10^4.

[5] = test system: HepG2 cells; test: resazurin-based proliferation assay, HepG2; format: cell-based; conditions: 10 μM
Method: as §3

[6] = test system: ABCA1; test: qPCR of LXR-regulated mRNA expression in HepG2: ABCA1; format: cell-based, human; conditions: 1 μM, HepG2, 24 h
[7] = test system: APOE; test: qPCR of LXR-regulated mRNA expression in HepG2: APOE; format: cell-based, human; conditions: 1 μM, HepG2, 24 h
[8] = test system: SREBP1c; test: qPCR of LXR-regulated mRNA expression in HepG2: SREBP1c; format: cell-based, human; conditions: 1 μM, HepG2, 24 h

**Q.** For `CS(=O)(=O)c1cccc(N2CCN(c3ccc(Cl)c(C(F)(F)F)c3)CC2)c1` [Compound 2, 1-(4-Chloro-3-[trifluoromethyl]phenyl)-4-(3-[methylsulfonyl]phenyl)piperazine], which classification ([1]; applies to LXRa and LXRb) is on record?
**A.** agonist

**Q.** And the “LXR modulation in Gal4 hybrid reporter gene assays (mode of action)” value ([1]; both LXR subtypes (LXRα and LXRβ))?
**A.** partial agonists

**Q.** And the EC50 ([1]; classification agonist, read-out: LXRa pEC50/pIC50 (converted))?
**A.** > 3.16 µM

**Q.** What about the EC50 [2] of the same compound?
**A.** > 3.16 µM

**Q.** And the “LXR modulation in LXR-responsive ABCA1 reporter gene assay” value [3]?
**A.** partial LXR agonists; also recorded: partial LXR agonism

**Q.** What about the antiproliferative effect [4] of the same compound?
**A.** did not inhibit the proliferation; also recorded: slightly reduced growth rate

**Q.** What about the antiproliferative effect [5] of the same compound?
**A.** did not inhibit the proliferation

**Q.** `O=S(=O)(c1ccccc1)N(CC(F)(F)F)c1ccc(C(O)(C(F)(F)F)C(F)(F)F)cc1` [Compound T0901317, reference compound] was tested. Which “ABCA1 mRNA expression” value [6] did it give?
**A.** induced mRNA expression

**Q.** What about the “ABCA1 mRNA expression” value ([6]; listed as T090) of the same compound?
**A.** induced

**Q.** And the “APOE mRNA expression” value [7]?
**A.** induced mRNA expression

**Q.** And the “APOE mRNA expression” value ([7]; listed as T090)?
**A.** induced

**Q.** And the “SREBP1c mRNA expression” value [8]?
**A.** induced mRNA expression

**Q.** What about the “SREBP1c mRNA expression” value ([8]; listed as T090) of the same compound?
**A.** induced
